Consider 2 compounds from patent US20160122821A1, “GENETIC MARKERS OF ANTIPSYCHOTIC RESPONSE” (SUREGENE, LLC, priority 2013, published 2016).

Test [1] has as its system Caucasian patients with schizophrenia (CATIE). Description: Genetic association (linear regression, additive model) of SNP alleles with MMRM-modelled change in PANSS Total Score under antipsychotic treatment, CATIE trial. Particulars: rs1315115, located in an intron of NPAS3. It counts as in vivo, human. The method, then: For the CATIE study, individual cases were diagnosed as having SZ based on DSM-III/IV criteria. Treatment response for all patients was assessed using the Positive and Negative Syndrome Scale (PANSS) (Kay et al., 1987; Kay et al., 1989; Leucht et al., 2005). […] To avoid possible bias in post hoc selection of a treatment response variable, the inventors used the mixed model repeated measures (MMRM) approach developed by van den Oord and coworkers (van den Oord et al., 2009). […] The design of the CATIE study, including details of consent for genetic analyses, has been described in detail by others (Lieberman et al., 2005; Stroup et al., 2003; Sullivan et al., 2008). Only retrospective genetic analyses, judged to be exempt from human studies requirements by an IRB, were conducted in the current study. Consented DNA samples were obtained from the Rutgers University Cell and DNA Repository in collaboration with […]. […] All of these patients self-reported as having exclusively European ancestry. […] Genotyping was performed on a fee for service basis according to Illumina's standard operating procedures. Raw intensity files were processed using Illumina® BeadStudio version 1.7.4 software. […] Only two of these had been previously genotyped in the CATIE sample. […] To allow comparison to previously published PGx findings for CATIE and to avoid possible bias in post-hoc selection of a treatment response variable, the inventors used the mixed model repeated measures (MMRM) approach developed by Van den Oord and coworkers (van den Oord et al., 2009; […] et al., 2011). Briefly, this method models random effects by introducing random slopes for treatment effects, allowing treatment effects to be different across subjects. The MMRM approach serves to increase the statistical power to detect genetic associations by increasing the precision in measuring change in PANSS Total Score (PANSS-T) by accounting for variance due to baseline PANSS-T, and treatment, as well as smoothing out the random fluctuations in PANSS-T between visits due to various uncontrolled variables. […] Bozeman, Mont.). Quantile-Quantile (QQ) plots were prepared using the R statistical package version 2.14.1. For comparison purposes, original CATIE-provided SNP genotypes in specific genes were evaluated using the same genetic analysis. Haplotype association integrating newly generated and original genotypes for specific regions was carried out in SVS using haplotype blocks predefined by Haploview software. […] For each of the SNPs listed the reference SNP (rs) number is provided, which provides the known sequence context for the given SNP (see, e.g., National Center for Biotechnology Information (NCBI) SNP database available on the world wide web at ncbi.nlm.nih.gov/snp).

For test [2] the test system is unchanged. Particulars: SNPs in NPAS3; Lavedan et al., 2009; cited from earlier work.

For the compound `Cc1nc2n(c(=O)c1CCN1CCC(c3noc4cc(F)ccc34)CC1)CCCC2` [Risperidone, risperidone], in test [1], the “association of SNP with response” value is on record as “associated with response”.

Consider `COc1cc(C(C)=O)ccc1OCCCN1CCC(c2noc3cc(F)ccc23)CC1` [iloperidone], for which the “association of SNPs with response” value in test [2] is “association of SNPs in NPAS3 with response”.
